From US20040248914A1, “Method for the treatment of overactive bladder” (priority 2001, published 2004) come the findings set out here.

A word on the inhibition: it is how much of the control response was suppressed. A higher inhibition goes with a response far below the control. Broadly, the Ki is a dissociation constant, usually derived from enzyme kinetics or from competition with a known ligand.

The target of one test is T1, human NK1 receptors (Homo sapiens, UniProt P25103).
T1 construct: expressed in transfected cells; host or cells: MEL cells (membranes)
In words: In vitro receptor binding assay, [3H]SP in MEL cell membranes expressing cloned human NK1 receptors. To be noted: for Ki: inhibition of [3H]SP binding to cloned hNK1 receptors in MEL cell membranes, read-out: hNK1 (Ki expressed as -Log Molar) (converted). How it is done:
(§1) Preparation of Membranes from MEL Cells Transfected with Cloned Human NK1 or NK2 Receptors:
(§2) The cloning of the human lung NK1 and NK2 receptors was achieved as described by Hopkins, et al., Biochem. Biophys. Res. Commun. 180: 1110-1117 (1991), and Graham, et al., Biochem. Biophys. Res. Commun. 177: 8-16 (199.1). Heterologous expression and scale-up growth of MEL cells transfected with human tachykinin receptors was performed as described for NK2 receptors by Aharony, et al., Mol. Pharmacol. 45: 9-19, 1994.
(§3) Membranes from recombinant MEL cells expressing NK1 or NK2 receptors were prepared as described by Hopkins, et al., (1991). Briefly, cells were homogenized at 4° C. (Brinkman PT-20 Polytron, setting 3, with one 15 sec burst on ice), in a buffer consisting of 50 mM Tris-HCl (pH7.4), 5 mM KCl, 120 mM NaCl, 10 mM EDTA and containing several protease inhibitors (1 mM phenylmethylsulfonylfluoride; 0.1 mg/ml soybean trypsin inhibitor, and 1 mM iodoacetamide). The homogenate was centrifuged at 1200×g for 45 min at 4° C. to remove cell debris. The supernatant was centrifuged at 48,000×g for 45 min at 4° C. The pellet was resuspended with a glass-Teflon motorized homogenizer in 30 volumes of ice-cold 50 mM Tris-HCl (pH 7.4) buffer.
(§4) Ligand binding assays with [^3H]NKA in MEL cells expressing cloned NK2 receptors or (^3H]SP in MEL cells expressing cloned NK1 receptors, were conducted generally as described by Aharony, et al., Mol. Pharmacol. 45: 9-19, 1994, Aharony, et al., Neuropeptides 23: 121-130 (1992) and Aharony, et al., J. Pharmacol. Exp. Ther. 259: 146-155 (1991). In brief, incubations were carried out in assay buffer containing membranes, test compounds, and [^3H] ligand (1.0-1.5 nM). In competition experiments, mixtures (0.315 mL) containing various concentrations of competing agents (agonists, antagonists, or vehicle), were incubated at 25° C. for 30 min., with or without 1 μM unlabeled homogenous ligand (NKA or SP), to define non-specific binding. Reactions were initiated by adding membranes (0.1-0.15 mg protein/final concentration) and were conducted in duplicate. Saturation and kinetic experiments were conducted in triplicate. Separation of receptor-bound and free ligand was accomplished by dilution with 1 mL of wash buffer (20 mM Tris-HCl, pH 7.5) followed immediately by vacuum filtration with a total volume of 10 mL of wash buffer (utilizing a Brandel Cell Harvester MB-48R with Whatman GF/B filters presoaked in 0.1% polyethylenimine).
(§5) The ability of compounds disclosed herein to inhibit the binding of [^3H] ligand is shown by the results disclosed in Table 1.

A further test deals with T2, human NK2 receptors (Homo sapiens, UniProt P21452).
T2 construct: expressed in transfected cells; host or cells: MEL cells (membranes)
T2 sequence (P21452 1-398): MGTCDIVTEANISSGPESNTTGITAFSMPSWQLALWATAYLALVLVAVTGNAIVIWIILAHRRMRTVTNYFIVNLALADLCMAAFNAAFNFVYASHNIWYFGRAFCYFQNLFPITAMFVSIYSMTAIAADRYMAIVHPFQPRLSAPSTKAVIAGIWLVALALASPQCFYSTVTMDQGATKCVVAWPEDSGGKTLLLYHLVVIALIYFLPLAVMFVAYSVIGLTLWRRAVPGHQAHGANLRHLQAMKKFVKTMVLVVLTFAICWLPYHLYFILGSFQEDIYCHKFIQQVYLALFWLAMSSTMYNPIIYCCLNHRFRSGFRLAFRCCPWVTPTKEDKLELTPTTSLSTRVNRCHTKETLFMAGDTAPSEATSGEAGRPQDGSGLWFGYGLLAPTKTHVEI
In words: In vitro receptor binding assay, [3H]NKA in MEL cell membranes expressing cloned human NK2 receptors. Conditions: inhibition of [3H]NKA binding to cloned hNK2 receptors in MEL cell membranes; read-out: hNK2 (Ki expressed as -Log Molar) (converted). How it is done:
as §1, §2, §3, §4, §5

Test [1] relates to BANK-mediated GP bladder contraction. Kind of test: BANK-induced bladder contraction in anesthetized guinea pigs. The format is in vivo, guinea pig. To be noted: for Inhibition of BANK-mediated GP bladder contraction (% Inhibition mediated by 52 nmol/kg administered orally): anesthetized female guinea pigs, 52 nmol/kg by gavage 1 hr before BANK, mean ± S.E.M. The method, then:
BANK-Induced Bladder Contraction in Anesthetized Guinea Pigs:
Female guinea pigs (300-450 g) were anesthetized by intramuscular administration of ketamine/xylazine mixture (3/10 mg/kg, respectively). The jugular vein was catheterized and the distal end of the catheter connected to a syringe for administration of compound where appropriate. Subsequently, the bladder was exposed through a midline abdominal incision, the ureters tied with 4-0 silk suture approximately 2 cm above the bladder, and cut above the ligature to allow drainage from the kidneys. Cannula were passed through the proximal urethra and bladder sphincter into the bladder lumen. The bladder was manually emptied, infused with 0.3 mL saline, and the catheter attached to a Gould p23 ID pressure transducer for recording changes in bladder pressure. An equilibration period of approximately 15 min was allowed for stabilization of the animals following surgical preparation. Thiorphan (10 mg/kg iv) was administered 15 minutes before agonist exposure to inhibit neutral endopeptidase 3.4.24.11.
To establish the oral effect of test compounds, animals were administered the test compounds (52 nmol/kg, 5% PEG 400-saline vehicle) by gavage 1 hr before administration of BANK. Changes in bladder contraction occurring in the presence and absence of test compound were recorded as an increase in intravesical bladder pressure on a Grass 7D Polygraph and expressed as the precentage change in response. Duration of action studies were performed following oral administration of test compounds (52 nmol/kg, 5% PEG 400-saline vehicle) at different times prior to administration of BANK. Responses were calculated as the percentage difference between the response to BANK in the presence of test compound compared with sham-treated controls. For all studies, each animal was administered a single dose of test compound. Experimental results were expressed as the mean plus or minus the Standard Error of the Mean (±S.E.M) percentage change from basal level.
The ability of compounds disclosed herein to inhibit bladder contractions induced with BANK is shown by the results disclosed in Table 1.

Values joined by “and” are separate entries in the source; they are usually repeats but may differ in a detail not shown here. Equal values may be shown once.

T1 sequence (P25103 whole entry): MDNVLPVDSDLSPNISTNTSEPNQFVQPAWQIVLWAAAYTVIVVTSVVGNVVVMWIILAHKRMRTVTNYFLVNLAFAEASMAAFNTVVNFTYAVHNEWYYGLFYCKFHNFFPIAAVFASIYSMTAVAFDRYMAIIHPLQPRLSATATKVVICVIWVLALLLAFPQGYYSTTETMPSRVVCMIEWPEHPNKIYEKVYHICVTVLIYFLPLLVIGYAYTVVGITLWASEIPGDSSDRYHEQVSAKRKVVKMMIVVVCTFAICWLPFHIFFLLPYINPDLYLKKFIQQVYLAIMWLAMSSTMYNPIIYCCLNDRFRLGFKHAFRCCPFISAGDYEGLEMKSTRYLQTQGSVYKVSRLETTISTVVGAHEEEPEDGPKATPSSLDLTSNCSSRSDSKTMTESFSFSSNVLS

`CN(C[C@@H](CCN1CCC(N2CC(C)(C)CNC2=O)CC1)c1ccc(Cl)c(Cl)c1)C(=O)c1ccccc1` [Example 1, (S)-N-[2-(3,4-Dichlorophenyl)-4-[4-(2-oxo-5,5-dimethyl-perhydropyrimidin-1-yl)piperidino]butyl]-N-methylbenzamide]: the inhibition at 10 µM at human NK1 receptors (at 10 μM, [3H]SP binding, cloned hNK1 receptors) came to 90%. Further, on human NK2 receptors, the Ki is 0.55 nM. Moreover, the “Inhibition of BANK-mediated GP bladder contraction (% Inhibition mediated by 52 nmol/kg administered orally)” value in test [1] is reported as 27 ± 13%.
For `CCN1CCCN(C2CCN(CC[C@H](CN(C)C(=O)c3ccccc3)c3ccc(Cl)c(Cl)c3)CC2)C1=O.O=C(O)CC(O)(CC(=O)O)C(=O)O` [Example 2, (S)-N-[2-(3,4-Dichlorophenyl)-4-[4-(3-ethyl-2-oxoperhydro-pyrimidin-1-yl)-piperidino]butyl]-N-methylbenzamide citrate], the values for the Ki at human NK1 receptors and at human NK2 receptors were 112 nM and 0.245 nM, respectively. Further, the “Inhibition of BANK-mediated GP bladder contraction (% Inhibition mediated by 52 nmol/kg administered orally)” value in test [1] came out at 26 ± 16%.
Turning to `CCN(C[C@@H](CCN1CCC(N2CCCNC2=O)CC1)c1ccc(Cl)c(Cl)c1)C(=O)c1ccccc1` [Example 3, (S)-N-{2-(3,4-Dichloro-phenyl)-4-[4-(2-oxo-tetrahydro-pyrimidin-1-yl)-piperidin-1-yl]-butyl}-N-ethyl-benzamide free base], the Ki is 66.1 nM at human NK1 receptors and 1.41 nM at human NK2 receptors. In addition, the “Inhibition of BANK-mediated GP bladder contraction (% Inhibition mediated by 52 nmol/kg administered orally)” value in test [1] was 64% and 64 ± 6%.
As to `CN(C[C@@H](CCN1CCC(N2CCCNC2=S)CC1)c1ccc(Cl)c(Cl)c1)C(=O)c1ccccc1.Cl.Cl` [Example 5, (S)-N-[2-(3,4-Dichlorophenyl)-4-[4-(2-thioxoperhydro-pyrimidin-1-yl)-piperidino]butyl]-N-methylbenzamide dihydrochloride], the Ki on human NK1 receptors is 251 nM; on human NK2 receptors it was 1.38 nM. Besides, the “Inhibition of BANK-mediated GP bladder contraction (% Inhibition mediated by 52 nmol/kg administered orally)” value in test [1] is reported as −9 ± 39%. In test [1] (guinea pig, BANK-induced bladder contraction), the “Effect on bladder contraction induced by BANK (in words)” value was “increase the bladder contraction induced by BANK”.
Regarding `CN(C[C@@H](CCN1CCC(N2CCCNC2=O)CC1)c1ccc(Cl)c(Cl)c1)C(=O)c1ccc(F)cc1.O=C(O)CC(O)(CC(=O)O)C(=O)O` [Example 4, (S)-N-[2-(3,4-Dichlorophenyl)-4-[4-(2-oxoperhydro-pyrimidin-1-yl)piperidino]butyl]-4-fluoro-N-methylbenzamide citrate], the Ki is 61.7 nM on human NK1 receptors and 1.74 nM at human NK2 receptors. In addition, in test [1], the “Inhibition of BANK-mediated GP bladder contraction (% Inhibition mediated by 52 nmol/kg administered orally)” value came out at 55 ± 11%.
